Data published in patent publication US20230173070A1, “METHODS AND SYSTEMS FOR ENHANCING DELIVERY OF THERAPEUTIC AGENTS TO BIOFILMS USING LOW BOILING POINT PHASE CHANGE CONTRAST AGENTS” (The University of North Carolina at Chapel Hill, priority 2020, published 2023).
Structures can show the parent of a compound that is named as a salt.

Legend:
[1] = test system: MRSA biofilms (USA300 LAC); test: MRSA biofilm assay, antibiotics alone, survivors enumerated by plating; format: cell-based, S. aureus; details: antibiotic alone at clinically achievable concentration (Cmax), 24 hours of drug treatment of mature biofilm, FIG. 2A
Description: Antibiotics were chosen based on clinical relevance or previously reported anti-biofilm efficacy in vitro. Mature MRSA biofilms (USA300 LAC) were cultured for 24 hours in tissue culture treated plates before the addition of antibiotics. Following 24 hours of drug treatment, biofilms were washed, and survivors were enumerated by plating.
(§1) MRSA strain LAC biofilms were cultured overnight in brain-heart infusion (BHI) media in 12-well (FIGS. 2A and 2B) or 24-well (FIG. 2C) tissue culture treated plates. Biofilms were washed and treated with antibiotics. Where indicated, plates were transferred to a custom-built temperature-controlled 37° C. water bath alignment setup. PCCA were added and 30 s ultrasound exposure was applied at indicated pressures and 20% duty cycle (FIG. 2B) or 10% duty cycle (FIG. 2C). After 24 hours, biofilms were washed, sonicated for disruption and surviving cells were enumerated by serial dilution plating. Survivors were presented as log10 CFU/ml. The averages of n=3 biologically independent samples are shown. The error bars represent the standard deviation. Statistical significance was determined using a one-way analysis of variance (ANOVA) with Dunnett's (FIG. 2A) or Sidak's multiple comparison test (FIGS. 2B and 2C). **, ***, **** denotes P<0.005, P<0.0005, P<0.0001, respectively. LEV, levofloxacin; GENT, gentamicin; TOB, tobramycin; MUP, mupirocin; VAN, vancomycin; LIN, linezolid, RIF, 10 μg/ml rifampicin; ns, not significant; US-PCCA, ultrasound-stimulated phase change contrast agents.
Biofilm assays were performed using the USA300 MRSA strain LAC. It is a highly characterized community-acquired MRSA (CA-MRSA) strain isolated in 2002 from an abscess of an inmate in Los Angeles County jail in California^67. LAC was cultured overnight (18 h) in brain heart infusion (BHI) media (Oxoid) in biological triplicates. Each culture was diluted 1:150 in fresh media and 2 or 3 ml was added to the wells of 24-well or 12-well tissue culture treated plates (Costar), respectively. Biofilms were covered with Breathe-Easier sealing strips (Sigma) and incubated at 37° C. for 24 h. Biofilms were carefully washed twice with PBS and fresh BHI media containing antibiotics was added. Biofilms were covered and incubated at 37° C. for 24 h. Biofilms were carefully washed twice with PBS before dispersal in a sonicating water bath (5 min) and vigorous pipetting. Surviving cells were enumerated by serial dilution and plating. […] For daptomycin activity, the media was supplemented with 50 mg/L of Ca^2+ ions. Where indicated tobramycin was supplemented with 30 μg/ml rhamnolipids^22 (50/50 mix of mono- and di-rhamnolipids, Sigma). Where indicated biofilms were treated with PCCA and ultrasound. For crystal violet staining, biofilms were carefully washed twice with PBS, and dried in a 65° C. oven for 1 h. Biofilms were stained with 1 ml 0.4% crystal violet for 5 min, and washed 3× with PBS. Wells were photographed, and stain was solubilized with 2 ml 5% acetic acid and absorbance measured at 570 nm.

MRSA strain LAC biofilms = test: MRSA biofilm assay with antibiotics plus PCCA and ultrasound (US-PCCA), survivors enumerated by plating; format: cell-based, S. aureus; details: for increase in killing of biofilm-associated cells by US-PCCA: vs antibiotic alone, 10% duty cycle, FIG. 2C; for increase in killing of biofilm-associated cells by US-PCCA / enhancement of tobramycin efficacy in the presence of PCCAs: 30 s ultrasound; for enhancement of tobramycin efficacy in the presence of PCCAs: 20% duty cycle, FIG. 2B
Description: Next, we tested the ability of 30 second (s) US-PCCA treatment to potentiate tobramycin efficacy. […] We hypothesized that US-PCCA might improve tobramycin penetration into biofilms and increase its efficacy. Mature biofilms were washed and transferred to a custom-built temperature-controlled 37° C. water bath alignment setup (FIG. 1B). Tobramycin and PCCAs were added and ultrasound applied at a range of rarefactional pressures (300-1200 kPa).
as §1
MRSA strain LAC biofilms were cultured overnight in brain-heart infusion (BHI) media in 24-well tissue culture treated plates. Biofilms were washed and treated with antibiotics and transferred to a custom-built temperature-controlled 37° C. water bath alignment setup. PCCAs were added and 30 s ultrasound exposure was applied at 300 kPa or 600 kPa (FIG. 3B and 3C) and 10% duty cycle. After 24 h, biofilms were washed, sonicated for disruption and surviving cells were enumerated by serial dilution plating (FIG. 3A) or stained with crystal violet (FIG. 3B). The averages of n=6 biologically independent samples are shown. The error bars represent the standard deviation. Statistical significance was determined using a one-way analysis of variance (ANOVA) with Dunnett's multiple comparison test (a) or multiple unpaired t-test (2-tailed) (FIG. 3C). *, **, **** denotes P<0.05, P<0.005, P<0.0001, respectively. TOB, 58 μg/ml tobramycin; RL, 30 μg/ml rhamnolipids; DAP, 100 μg/ml daptomycin; LIN, 15 μg/ml linezolid; RIF, 10 μg/ml rifampicin; ADEP, 5 μg/ml acyldepsipeptide; ns, not significant; US-PCCA, ultrasound-stimulated phase change contrast agents.
Biofilm assays were performed using the USA300 MRSA strain LAC. It is a highly characterized community-acquired MRSA (CA-MRSA) strain isolated in 2002 from an abscess of an inmate in Los Angeles County jail in California^67. LAC was cultured overnight (18 h) in brain heart infusion (BHI) media (Oxoid) in biological triplicates.

| Compound | reduction in surviving biofilm cells [1] | also measured |
| --- | --- | --- |
| CC(=O)NC[C@H]1CN(c2ccc(N3CCOCC3)c(F)c2)C(=O)O1 [linezolid] | significant reduction | – |
| C/C(=C\C(=O)OCCCCCCCCC(=O)O)C[C@@H]1OC[C@H](C[C@@H]2O[C@H]2[C@@H](C)[C@H](C)O)[C@@H](O)[C@H]1O [mupirocin] | significant reduction | increase in killing of biofilm-associated cells by US-PCCA (MRSA strain LAC biofilms): 41% |
| NC[C@H]1O[C@H](O[C@H]2[C@H](O)[C@@H](O[C@H]3O[C@H](CO)[C@@H](O)[C@H](N)[C@H]3O)[C@H](N)C[C@@H]2N)[C@H](N)C[C@@H]1O [Tobramycin, tobramycin] | significant reduction | enhancement of tobramycin efficacy in the presence of PCCAs (MRSA strain LAC biofilms; 300 kPa): significantly enhanced; enhancement of tobramycin efficacy in the presence of PCCAs (MRSA strain LAC biofilms; 600 kPa): significantly enhanced; enhancement of tobramycin efficacy in the presence of PCCAs (MRSA strain LAC biofilms; 1200 kPa): significantly enhanced |
| gentamicin | no efficacy | – |
| CCCCCC/C=C\CCCCCCCC(=O)O [Palmitoleic acid, palmitoleic acid] | – | vancomycin killing of biofilms (MRSA strain LAC biofilms; 50 μg/ml vancomycin, 30 μg/ml palmitoleic acid, with US-PCCA (30 s, 1 MHz, 600 kPa, 10% duty cycle), FIG. 12): drastically improves vancomycin killing |
| C[C@H]1COc2c(N3CCN(C)CC3)c(F)cc3c(=O)c(C(=O)O)cn1c23 [levofloxacin] | no efficacy | – |
| CN[C@H](CC(C)C)C(=O)N[C@H]1C(=O)N[C@@H](CC(N)=O)C(=O)N[C@H]2C(=O)N[C@H]3C(=O)N[C@H](C(=O)N[C@H](C(=O)O)c4cc(O)cc(O)c4-c4cc3ccc4O)[C@H](O)c3ccc(c(Cl)c3)Oc3cc2cc(c3O[C@@H]2O[C@H](CO)[C@@H](O)[C@H](O)[C@H]2O[C@H]2C[C@](C)(N)[C@H](O)[C@H](C)O2)Oc2ccc(cc2Cl)[C@H]1O [vancomycin, vancomycin hydrochloride] | significant reduction | increase in killing of biofilm-associated cells by US-PCCA (MRSA strain LAC biofilms): 93% |
